Assay results taken from patent US10137138B1, “Sulfonylurea derivatives of oleanolic acid” (KING SAUD UNIVERSITY, priority 2018, dated 2018).

Columns and labels:
[1] = tested on: alloxan-induced diabetic mouse model; assay: Acute evaluation of in vivo oral hypoglycemic activity; conditions: diabetic mice, single oral dose 200 μg/kg body weight, mean ± SEM, n=6
Protocol: The sulfonylurea derivatives of oleanolic acid were screened for their oral hypoglycemic activity in vivo using the alloxan-induced diabetic mouse model. In an acute evaluation, the percentage change in blood glucose levels in diabetic mice after oral administration of the test compounds (200 μg/kg body weight) was measured and summarized in Table 1 and FIG. 2.
Briefly, animals were fasted overnight and the fasting blood glucose (BG) (0 hour) levels were calculated. Test and control compounds were administered at a fixed dose of 200 μg/kg body weight orally (homogenized suspension in 0.5% carboxymethyl cellulose (CMC) and permissible amounts of Tween 80). Animals in the vehicle-treated group were given an equal volume of 0.5% CMC and control group animals were untreated. Blood samples were removed from all animals at 2, 4, 6 and 24 hours and the percentage change in BG was calculated. The data were analyzed by one-way ANOVA followed by Dunnett's test. The results were expressed as mean±standard error of mean for each group, n=6 for each group, and p<0.01 or p<0.05 was considered as statistically significant.

[2] = tested on: alloxan-induced diabetic mouse model; assay: Sub-acute evaluation of in vivo oral hypoglycemic activity (21 days dosing, 7 days rest); conditions: diabetic mice, mean ± SEM, n=6; for % change in BG, 7 days rest period: day 28: 7 days rest after 21 days oral 200 μg/kg body weight; for % change in BG, 7 day / % change in BG, 14 day / % change in BG, 21 day: oral 200 μg/kg body weight daily; for % change in BG, 7 day: day 7; for % change in BG, 14 day: day 14; for % change in BG, 21 day: day 21
Protocol: The sulfonylurea derivative compounds were also screened for their oral hypoglycemic activity after several days of administration using the alloxan-induced diabetic mouse model, and percentage changes in blood glucose levels after oral administration ([…] body weight) were recorded (Table 2).
Briefly, animals were fasted overnight, and the fasting BG (0 day) levels were calculated. Test and control compounds were administered orally for 21 days at a fixed time and a fixed dose of 200 μg/kg body weight (homogenized suspension in 0.5% CMC and permissible amounts of Tween 80). After 21 days, treatment was stopped and animals were rested for a period of 7 days. Animals in the vehicle-treated group were then given an equal amount of 0.5% CMC and those of control group were untreated. Blood samples were removed from all animals throughout the course of the study at 7, 14, 21 and 28 days, and percentage change in BG was calculated. The data were analyzed by one-way ANOVA, followed by Dunnett's test. The results were expressed as mean±standard error of mean for each group, n=6 for each group, and p<0.01 or p<0.05 was considered as statistically significant (Table 2).

| Compound | % change in BG, 2 h [1] [%] | % change in BG, 4 h [1] [%] | % change in BG, 6 h [1] [%] | % change in BG, 24 h [1] [%] | % change in BG, 7 days rest period [2] [%] | % change in BG, 7 day [2] [%] | % change in BG, 14 day [2] [%] | % change in BG, 21 day [2] [%] |
| --- | --- | --- | --- | --- | --- | --- | --- | --- |
| CC1(C)CC[C@]2(C(=O)NCCc3ccc(S(=O)(=O)NC(=O)NC4CCCCC4)cc3)CC[C@]3(C)C(=CC[C@@H]4[C@@]5(C)CCC(=O)C(C)(C)[C@@H]5CC[C@]43C)[C@@H]2C1 [Compound 3a, N1-[p-(4-Oxo-18β-olean-12-ene-28-amido-ethyl)-benzenesulfonyl]-N2-cyclohexyl-urea] | −72.76 ± 0.78 | −77.76 ± 0.90 | −83.56 ± 0.83 | −74.44 ± 0.74 | −81.78 ± 0.90 | −76.87 ± 0.89 | −80.09 ± 0.90 | −87.65 ± 0.95 |
| CC1(C)CC[C@]2(C(=O)O)CC[C@]3(C)C(=CC[C@@H]4[C@@]5(C)CC[C@H](O)C(C)(C)[C@@H]5CC[C@]43C)[C@@H]2C1 [Oleanolic acid, oleanolic acid] | −40.79 ± 1.20 | −48.66 ± 1.31 | −52.17 ± 1.31 | −51.01 ± 1.11 | −30.32 ± 0.83 | −10.56 ± 0.80 | −20.35 ± 0.72 | −37.68 ± 0.78 |
| CC1CCC(NC(=O)NS(=O)(=O)c2ccc(CCNC(=O)C34CCC(C)(C)CC3C3=CCC5C6(C)CCC(=O)C(C)(C)C6CCC5(C)C3(C)CC4)cc2)CC1 (stereo not drawn) [Compound 3b, N1-[4-(3-Oxo-18β-olean-12-ene-28-amido-ethyl)-benzenesulfonyl]-N2-(4-methylcyclohexyl)-urea] | −75.56 ± 0.86 | −80.97 ± 0.92 | −88.89 ± 0.98 | −76.76 ± 0.89 | −82.12 ± 1.17 | −80.80 ± 0.80 | −84.98 ± 1.16 | −88.89 ± 1.12 |
| COc1ccc(Cl)cc1C(=O)NCCc1ccc(S(=O)(=O)NC(=O)NC2CCCCC2)cc1 [Glibenclamide, glibenclamide] | −35.55 ± 1.55 | −26.54 ± 1.32 | −15.58 ± 0.88 | −11.24 ± 0.11 | −28.48 ± 0.58 | −16.23 ± 0.32 | −22.57 ± 0.54 | −30.87 ± 0.58 |
